Experimental data as given in publication PMC3788796, “The Antimicrobial Domains of Wheat Puroindolines Are Cell-Penetrating Peptides with Possible Intracellular Mechanisms of Action” (PLoS ONE, 2013).
“And” between values parts separate entries of the source, which are not always exact repeats. Equal values may be shown once.

Tests used:
[1] = system: S. cerevisiae cells; test: Propidium iodide uptake by yeast cells; format: cell-based, Saccharomyces cerevisiae; conditions: for % fluorescent cells (propidium iodide uptake): 1 h 30°C in PBS pH 7.4, PI 6 µg/mL 5 min, no-peptide control 5.7, average of 4 fields, two independent experiments
Procedure: S. cerevisiae was grown overnight at 30°C in 100 mL PDB and the cells collected by centrifugation and resuspended in Phosphate Buffered Saline (PBS: 137 mM NaCl, 2.7 mM KCl, 8 mM Na2HPO4, 1.46 mM KH2PO4; pH 7.4) to ∼1.5×10^7 cells/mL (OD600 = 0.6–0.8). 75 µL of the suspension was incubated with 25 µL of stock solutions of PuroA, Pina-M, Pina-W→F, PuroB and indolicidin (to give a final peptide concentration of 64, 125, 250 or 500 µg/mL), or with PBS (for no-peptide controls) for 1 h at 30°C, followed by staining with propidium iodide (PI) as described. PI stock solution (60 µg/mL) was prepared in MilliQ water and stored in dark at −20°C. It was diluted to 12 µg/mL before use, mixed 1∶1 with peptide-treated or untreated yeast cells (to final PI concentration 6 µg/mL), and the samples incubated in the dark for 5 min. A 10 µL aliquot of these was examined using a Nikon Eclipse 50 i fluorescence microscope with 561 nm excitation and 630/22 emission filter, at 400×magnification. The photomicrographs were taken under light and fluorescence for each field. Five randomly selected fields were recorded and scored for each sample.

[2] = system: S. cerevisiae cells; test: SEM of peptide-treated yeast cells; format: cell-based, Saccharomyces cerevisiae; conditions: sub-MIC: PuroA and Pina-M 64 µg/mL, Pina-W→F 125 µg/mL; 1 h 30°C
Procedure: S. cerevisiae cultures were grown overnight in 5.0 mL of PDB 30°C, to OD600 = 1.2–1.8 (∼5×10^7 cells/mL). 75 µL aliquots of the yeast cell suspension were incubated with 25 µL of PuroA, Pina-M, Pina-W→F or PuroB (at final concentrations of 0.5×, 1× or 2× of the respective MIC for S. cerevisiae; see results) for 1 h at 30°C. The cells were collected by centrifugation (1000×g, 5 min), the pellets washed three times in PBS (pH 7.4) and resuspended in 100 µL MilliQ (ultra-pure) water. A 25 µL aliquot of the cell suspension was spotted onto a glass slide, air-dried, then fixed and dehydrated as described previously. In brief, the air-dried slides were fixed in 2.5% glutaraldehyde (in PBS, pH 7.4) overnight in a humid chamber, then washed with PBS pH 7.4 for 10 min, and dehydrated in an ethanol gradient of 50%, 60%, 70%, 80%, 90% and 100%. The slides were freeze-dried overnight and then coated in a Dynavac CS300 coating unit with carbon and gold, with double sided conducting carbon tape attached to the slides for better conductivity. The samples were analysed using a ZEISS supra 10 VP field emission scanning electron microscope (Carl Zeiss Microscopy, NY, USA) at 3.0 kV.

[3] = system: Saccharomyces cerevisiae (ATCC 287); test: MIC of the peptides against yeast cells; format: cell-based; conditions: PDB, 96-well two-fold dilution 250 to 2 µg/mL, 0.5–2×10^3 cells/mL, overnight 30°C, growth observed visually
Procedure: Saccharomyces cerevisiae (ATCC 287) was grown in Potato Dextrose Broth (PDB) overnight at 30°C with shaking at 220 rpm. The cultures were vortexed vigorously and the cell suspension adjusted to 1–5×10^6 cells/mL with PDB (McFarland standard 0.5) and then diluted 1∶200 with PDB to a final concentration of 0.5–2×10^3 cells/mL [37]. The MIC assays were carried out in 96-well plates as described previously. Peptides (PuroA, Pina-M, Pina-W→F and PuroB) in 25 µL volumes were added to the first empty well and a two-fold dilution was carried out across each row with a starting peptide concentration of 250 µg/mL and a final one of 2 µg/mL. Test wells were subsequently inoculated with 75 µL yeast cells (0.5–2×10^3 cells/mL) and incubated overnight at 30°C. Negative control (no peptide) and positive control (fungicide Mycobutanil) wells were also prepared. The MIC was defined as the lowest concentration of the peptide required to inhibit fungal growth, observed visually.

[4] = system: plasmid DNA (pBluescript SK+); test: Gel retardation assay for in vitro DNA binding; conditions: 100 ng plasmid DNA in 10 µL MilliQ water, 1 h room temperature, peptide 16–500 µg/mL, post-electrophoresis EtBr staining, triplicate assays
Procedure: This test assesses any peptide-DNA binding by noting the retardation of the rate of migration of DNA bands through agarose gels. A number of methods were tested. As per Hsu et al., DNA of a plasmid (200 ng) or a commercial molecular weight marker (50 ng) was mixed with a peptide (to final concentrations of 32, 64, 125 or 250 µg/mL) in 15 µL of 10 mM Tris-1 mM EDTA buffer (pH 8.0), incubated at room temperature for 2 min, then electrophoresed in 0.5% or 1.0% agarose gels containing 0.5 µg/mL ethidium bromide (EtBr). Following Park et al., 100 ng plasmid DNA was mixed with a peptide (to different concentrations) in 20 µL binding buffer (5% glycerol, 10 mM Tris-HCl (pH 8.0), 1 mM EDTA, 1 mM DTT, 20 mM KCl, 50 µg/mL BSA), held for 1 h at room temperature, then electrophoresed in EtBr-containing gels. Finally the protocols were modified to eliminate any interference of EtBr in the initial peptide-DNA binding. Plasmid DNA (100 ng) was mixed with a peptide (to final concentrations of 16, 32, 64, 125, 250 or 500 µg/mL) in 10 µL of MilliQ water, held at room temperature for 1 h and electrophoresed, followed by emersion of gels in EtBr solution (0.5 µg/mL) for 30 min before imaging.

Substance: FPVTFRFFKFFKG-NH2 [Pina-W→F, PuroA-based peptide with all Trps substituted with Phe residues]
- % fluorescent cells (propidium iodide uptake) ([1]; peptide 64 µg/mL): 56.5%
- % fluorescent cells (propidium iodide uptake) ([1]; peptide 125 µg/mL): 72.3%
- % fluorescent cells (propidium iodide uptake) ([1]; peptide 250 µg/mL): 100%
- % fluorescent cells (propidium iodide uptake) ([1]; peptide 500 µg/mL): 100%
- cells permeable to propidium iodide at sub-MIC levels ([1]; peptide below its MIC against yeast): 56–72%
- cells permeable to propidium iodide at MIC levels and higher ([1]; peptide equal to or greater than its MIC for yeast): 100%
- surface morphology of yeast cells (SEM) at sub-MIC level [2]: shallow pits or pores on the surface
- MIC against S. cerevisiae [3]: 250 µg/mL
- Peptide concentration inducing gel retardation, Partial [4]: 32 ± 0 µg/mL
- Peptide concentration inducing gel retardation, Full ([4]; complete inhibition of migration): 64 µg/mL and 64 ± 0 µg/mL
